Assay results: patent publication US7217730B2, “Method for the use of pyranoindole derivatives to treat infection with Hepatitis C virus” (Wyeth, priority 2002, dated 2007)
Like-named read-outs stand apart in the source and are kept apart here.

Target: T1, NS5B from the BK strain (genotype 1b) (Hepatitis C virus genotype 1b, UniProt P26663)
T1 construct: NS5B from the BK strain (genotype 1b) is expressed in E. coli as a protein in which the 21 C-terminal amino acids are replaced; made in house; host or cells: E. coli
T1 sequence (P26663 2420-2989): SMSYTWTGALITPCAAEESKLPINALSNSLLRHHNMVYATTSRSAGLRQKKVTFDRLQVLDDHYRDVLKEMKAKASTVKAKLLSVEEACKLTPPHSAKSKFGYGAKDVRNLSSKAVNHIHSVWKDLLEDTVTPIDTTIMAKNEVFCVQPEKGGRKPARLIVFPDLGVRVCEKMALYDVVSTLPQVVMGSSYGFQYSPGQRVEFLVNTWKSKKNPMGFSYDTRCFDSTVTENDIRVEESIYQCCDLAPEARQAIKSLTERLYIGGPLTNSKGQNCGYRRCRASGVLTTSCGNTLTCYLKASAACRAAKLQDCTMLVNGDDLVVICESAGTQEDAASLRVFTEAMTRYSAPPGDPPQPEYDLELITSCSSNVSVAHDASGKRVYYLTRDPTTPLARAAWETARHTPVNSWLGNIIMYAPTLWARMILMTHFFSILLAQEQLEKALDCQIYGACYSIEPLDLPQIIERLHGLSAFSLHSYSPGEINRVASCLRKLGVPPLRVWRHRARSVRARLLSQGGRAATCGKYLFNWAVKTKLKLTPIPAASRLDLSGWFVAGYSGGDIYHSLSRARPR
Test: Hepatitis C polymerase inhibition, NS5B BK strain, 33P-GTP filter assay
Type: biochemical
Conditions: for inhibition at 20 µM: read-out: HCV pol % inh at 20 μM; for IC50: NS5B BK strain, read-out: HCV pol BK IC50
Text: The ability of the compounds of the present invention to inhibit Hepatitis C Polymerase was established by the following experimental procedure: • NS5B from the BK strain (genotype 1b) is expressed in E. coli as a protein in which the 21 C-terminal amino acids are replaced with a short linker and a hexahistidine tag ([…]). The purified protein is mixed with radioactive nucleotides and allowed to replicate a heteropolymeric RNA substrate, primed by an endogenous short hairpin, resulting in an approximately 760 nt product. The radioactive product is captured on a filter and quantitated after removal of the unincorporated nucleotides.
Reagents: • 10 mM uridine 5′-triphosphate (UTP) (Promega # p116B) • 10 mM adenine 5′-triphosphate (ATP) (Promega # p113B) • 10 mM cytidine 5′-triphosphate (CTP) (Promega # p114B) • 10 mM guanine 5′-triphosphate (GTP) (Promega # p115B) • Bovine Serum Albumin (BSA) 10 mg/ml NEB (100× at 10 mg/ml) #007-BSA • RNasein (Promega #N251X) 40 U/μl • A-[33P]-GTP (NEN-easytides NEG/606H 3000 Ci/mmol, 370 MBq/ml, 10 mCi/ml) • Falcon polypropylene 96 well plates (Becton Dickinson # 351190) • Millipore Multiscreen assasy system-96 well-filtration plate #MADE NOB 50 • Optiphase Supermix (Wallac) formulated by Fisher • Millipore Multiscreen liner for use in microbeta 1450-106 casette [(Wallac) Perkin Elmer #1450-433] • 1 M(N-[2-hydroxyethyl]piperazine-N′-[2-ethanesulfonic acid]) (HEPES), pH 7.3 • Amersham Pharmacia Biotec (US16924-500 ml) • 1 M MgCl2 (SIGMA #M1028) • Dithiothreitol (DTT) (solid) (SIGMA #D9779) • RNase free water (GIBCO-BRL #10977-023) • Dimethyl sulfoxide (Aldrich #27685-5) • Basilen Blue (Sigma, B5520) • 0.5M ethylenediaminetetraacetic acid (EDTA), pH 8 (GIBCO-BRL #15575-020) • Dibasic sodium phosphate (7-hydrate) (Na2HPO4.7H2O; Baker#3824-07) • Phosphoric acid (Baker, #0262.02)
Further reagent preparation: • 0.5 M Na Phosphate buffer. Per liter, weigh 134 gr Na2HPO4.7H2O, add water to 900 ml. Adjust pH to 7.0 with phosphoric acid. Top off with water to 1 L. • Dilute nucleotides 1:1000 to 10 μM (GTP and CTP) or 1:100 to 100 μM (ATP and UTP) into RNase free water.
Procedure: • (1) Compounds 10 μl at 10 μg/ml in 15% dimethylsulfoxide (DMSO)
When starting from 100 μg/ml compound stock in […]: • Dispense 5 μl 30% DMSO per well • Dispense 5 μl compound (100 μg/ml) per well.
When starting from 50 μg/ml compound stock in 15% DMSO: • Add 10 μl compound per well. • (2) Enzyme Mix:
Add 20 μl enzyme mix into each well of the assay plate. Incubate compound and enzyme at room temperature for 15 minutes • (3) Template mix—prepare ahead
Spin down a tube of RNA (5 μg/tube stored in 75% ethanol and 0.3 M sodium acetate) in a microcentrifuge for 20 minutes at 4° C. One tube is enough for 1–1.5 plates. Remove as much ethanol from the tube as possible by inverting the tube. Be gentle, pellet RNA may not adhere to the tube. Vacuum dry the RNA. Resuspend the RNA by adding 1 ml of DEPC water, close the cap of the tube tightly. To dissolve RNA, incubate RNA solution on ice for ˜60 minutes and gently vortex. Spin briefly to ensure all RNA solution is down to the bottom of the tube before opening cap. Gently transfer RNA solution into a 5 ml or larger tube. Add another 3 ml of DEPC water (total 4 ml of volume).
Add the following volumes of reagents
Add 20 μl template mix per reaction (i.e. 20 ng of pOF per reaction or ˜3 nM) • (4) Incubate reaction at room temperature (22–25° C.) for 2 hours. • (5) Stop reaction by adding 50 μl of 170 mM EDTA. • Final concentration of EDTA is 85 mM. • (6) Prewet filters of Millipore multiscreen assay plate by adding 200 μl of 0.5 M sodium phosphate buffer, pH 7.0 into each well. Let stand at room temperature for 2–3 minutes. • (7) Place the multiscreen filter plate onto a Millipore Manifold and turn on vacuum to allow buffer to flow through. Turn off vacuum. Transfer 80 μl of the reaction product into each well of the filter plate. Let stand for 2–3 minutes. […]

| SMILES | inhibition at 20 µM (Table 1A, 20 μM compound) | IC50 (Table 1A) | inhibition at 20 µM |
| --- | --- | --- | --- |
| CCCC1(CC(=O)O)OCCc2c1[nH]c1cccc(-c3ccc(C)cc3)c21 (stereo not drawn) [Example 32, [5-(4-methylphenyl)-1-propyl-1,3,4,9-tetrahydropyrano[3,4-b]indol-1-yl]acetic acid] | < 5% | > 20 µM |  |
| CCCC1(CC(=O)O)OCCc2c1[nH]c1cccc(-c3ccc(OC)cc3)c21 (stereo not drawn) [Example 33, [5-(4-methoxyphenyl)-1-propyl-1,3,4,9-tetrahydropyrano[3,4-b]indol-1-yl]acetic acid] | < 5% | > 20 µM |  |
| CCCC1(CC(=O)O)OCCc2c1[nH]c1cccc(-c3ccc(Cl)cc3)c21 (stereo not drawn) [Example 34, (5-(4-chlorophenyl)-1-propyl-1,3,4,9-tetrahydropyrano[3,4-b]indol-1-yl]acetic acid] | 5% | > 20 µM |  |
| CCCC1(CC(=O)O)OCCc2c1[nH]c1cccc(-c3ccc(Cl)cc3Cl)c21 (stereo not drawn) [Example 35, [5-(2,4-dichlorophenyl)-1-propyl-1,3,4,9-tetrahydropyrano[3,4-b]indol-1-yl]acetic acid] | 35% | > 20 µM |  |
| CCCC1(CC(=O)O)OCCc2c1[nH]c1cccc(-c3ccc(C(F)(F)F)cc3)c21 (stereo not drawn) [Example 36, {1-propyl-5-[4-(trifluoromethyl)phenyl]-1,3,4,9-tetrahydropyrano[3,4-b]indol-1-yl}acetic acid] | 4% | > 20 µM |  |
| CCCC1(CC(=O)O)OCCc2c1[nH]c1cccc(-c3cccs3)c21 (stereo not drawn) [Example 37, (1-propyl-5-thien-2-yl-1,3,4,9-tetrahydropyrano[3,4-b]indol-1-yl)acetic acid] | 28% | > 20 µM |  |
| CCCC1(CC(=O)O)OCCc2c1[nH]c1cccc(-c3ccc4ccccc4c3)c21 (stereo not drawn) [Example 38, [5-(2-naphthyl)-1-propyl-1,3,4,9-tetrahydropyrano[3,4-b]indol-1-yl]acetic acid] | 11% | > 20 µM |  |
| CCCC1(CC(=O)O)OCCc2c1[nH]c1cccc(-c3ccc(-c4ccccc4)cc3)c21 (stereo not drawn) [Example 39, [5-(1,1′-biphenyl-4-yl)-1-propyl-1,3,4,9-tetrahydropyrano[3,4-b]indol-1-yl]acetic acid] | 7% | > 20 µM |  |
| CCCC1(CC(=O)O)OCCc2c1[nH]c1cccc(-c3ccco3)c21 (stereo not drawn) [Example 40, [5-(2-furyl)-1-propyl-1,3,4,9-tetrahydropyrano[3,4-b]indol-1-yl]acetic acid] | 27% | > 20 µM |  |
| CCCC1(CC(=O)O)OCCc2c1[nH]c1cccc(-c3ccc(Br)cc3)c21 (stereo not drawn) [Example 41, [5-(4-bromophenyl)-1-propyl-1,3,4,9-tetrahydropyrano[3,4-b]indol-1-yl]acetic acid] | 13% | > 20 µM |  |
| CCCC1(CC(=O)O)OCCc2c1[nH]c1cccc(-c3ccccc3C)c21 (stereo not drawn) [Example 42, [5-(2-methylphenyl)-1-propyl-1,3,4,9-tetrahydropyrano[3,4-b]indol-1-yl]acetic acid] | 31% | > 20 µM |  |
| CCCC1(CC(=O)O)OCCc2c1[nH]c1cccc(-c3ccccc3OC)c21 (stereo not drawn) [Example 43, [5-(2-methoxyphenyl)-1-propyl-1,3,4,9-tetrahydropyrano[3,4-b]indol-1-yl]acetic acid] |  | > 20 µM | 83% |
| CCCC1(CC(=O)O)OCCc2c1[nH]c1cccc(-c3ccccc3Cl)c21 (stereo not drawn) [Example 44, [5-(2-chlorophenyl)-1-propyl-1,3,4,9-tetrahydropyrano[3,4-b]indol-1-yl]acetic acid] | 41% | > 20 µM |  |
| CCCC1(CC(=O)O)OCCc2c1[nH]c1cccc(-c3ccccc3C(F)(F)F)c21 (stereo not drawn) [Example 45, (1-propyl-5-[2-(trifluoromethyl)phenyl]-1,3,4,9-tetrahydropyrano[3,4-b]indol-1-yl)acetic acid] | 14% | > 20 µM |  |
| CCCC1(CC(=O)O)OCCc2c1[nH]c1cccc(-c3ccc(SC)cc3)c21 (stereo not drawn) [Example 46, (5-[4-(methylthio)phenyl]-1-propyl-1,3,4,9-tetrahydropyrano[3,4-b]indol-1-yl)acetic acid] | 15% | > 20 µM |  |
| CCCC1(CC(=O)O)OCCc2c1[nH]c1cccc(-c3cccc(OC)c3)c21 (stereo not drawn) [Example 47, [5-(3-methoxyphenyl)-1-propyl-1,3,4,9-tetrahydropyrano[3,4-b]indol-1-yl]acetic acid] | 15% | > 20 µM |  |
| CCCC1(CC(=O)O)OCCc2c1[nH]c1cccc(-c3ccc(F)cc3)c21 (stereo not drawn) [Example 48, [5-(4-fluorophenyl)-1-propyl-1,3,4,9-tetrahydropyrano[3,4-b]indol-1-yl]acetic acid] | 18% | > 20 µM |  |
| CCCC1(CC(=O)O)OCCc2c1[nH]c1cccc(-c3cccc(Cl)c3)c21 (stereo not drawn) [Example 49, [5-(3-chlorophenyl)-1-propyl-1,3,4,9-tetrahydropyrano[3,4-b]indol-1-yl]acetic acid] | < 5% | > 20 µM |  |
| C/C=C/CCC1(CC(=O)O)OCCc2c1[nH]c1c(Cl)ccc(Cl)c21 (stereo not drawn) [Example 50, (5,8-dichloro-1-[(3E)-pent-3-enyl]-1,3,4,9-tetrahydropyrano[3,4-b]indol-1-yl)acetic acid] | 34% | > 20 µM |  |
| CC(C)C1(CC(=O)O)OCCc2c1[nH]c1c(Cl)ccc(Cl)c21 (stereo not drawn) [Example 51, (5,8-dichloro-1-isopropyl-1,3,4,9-tetrahydropyrano[3,4-b]indol-1-yl)acetic acid] | 84% | 7 µM |  |
| O=C(O)CC1(c2ccccc2)OCCc2c1[nH]c1c(Cl)ccc(Cl)c21 (stereo not drawn) [Example 52, (5,8-dichloro-1-phenyl-1,3,4,9-tetrahydropyrano[3,4-b]indol-1-yl)acetic acid] | 11% | > 20 µM |  |
| O=C(O)CC1(c2ccoc2)OCCc2c1[nH]c1c(Cl)ccc(Cl)c21 (stereo not drawn) [Example 53, [5,8-dichloro-1-(3-furyl)-1,3,4,9-tetrahydropyrano[3,4-b]indol-1-yl]acetic acid] | 62% | 13 µM |  |
| CC(C)CCCC1(CC(=O)O)OCCc2c1[nH]c1c(Cl)ccc(Cl)c21 (stereo not drawn) [Example 54, [5,8-dichloro-1-(4-methylpentyl)-1,3,4,9-tetrahydropyrano[3,4-b]indol-1-yl]acetic acid] | 6% | > 20 µM |  |
| COc1cc(C2(CC(=O)O)OCCc3c2[nH]c2c(Cl)ccc(Cl)c32)cc(OC)c1OC (stereo not drawn) [Example 55, [5,8-dichloro-1-(3,4,5-trimethoxyphenyl)-1,3,4,9-tetrahydropyrano[3,4-b]indol-1-yl]acetic acid] | < 5% | > 20 µM |  |
